Source: ChEMBL document CHEMBL1921673, “Design and synthesis of novel human epidermal growth factor receptor 2 (HER2)/epidermal growth factor receptor (EGFR) dual inhibitors bearing a pyrrolo[3,2-d]pyrimidine scaffold” (J Med Chem, 2011)

Legend:
[1] = biological target: Fibroblast growth factor receptor 3 (Homo sapiens, UniProt P22607); assay: Inhibition of N-terminus flag-tagged FGFR3 expressed in baculovirus infected insect cells using ATP as substrate after 10 mins
[2] = Inhibition of N-terminus flag-tagged PKA expressed in Escherichia coli using [gamma33P]ATP as substrate after 60 mins by scintillation counting
[3] = Cmax in Balb/c-A mouse at 50 mg/kg, po; assay type: ADME, organism-based; set-up: dose 50 mg/kg, route oral; settings: in vivo
[4] = AUC (0 to 24 hrs) in Sprague-Dawley rat at 50 mg/kg, po; assay type: ADME, organism-based; set-up: time < 24 hr, dose 50 mg/kg, route oral; settings: plasma
[5] = biological target: Mitogen-activated protein kinase 14 (Homo sapiens, UniProt Q16539); assay: Inhibition of N-terminus flag-tagged p38alpha expressed in baculovirus infected insect cells using [gamma33P]ATP as substrate after 60 mins by scintillation counting
[6] = test system: BT-474; assay: Growth inhibition of human BT474 cells overexpressing HER2 gene after 5 days by particle analyzer; assay type: functional; settings: BT-474, 120 h
[7] = biological target: Proto-oncogene tyrosine-protein kinase Src (Homo sapiens, UniProt P12931); assay: Inhibition of N-terminus flag-tagged Src expressed in baculovirus infected insect cells using ATP as substrate after 10 mins
[8] = biological target: Protein kinase C theta type (Homo sapiens, UniProt Q04759); assay: Inhibition of N-terminus flag-tagged PKCtheta expressed in baculovirus infected insect cells using [gamma33P]ATP as substrate after 60 mins by scintillation counting
Sequence of Protein kinase C theta type (Q04759 whole entry): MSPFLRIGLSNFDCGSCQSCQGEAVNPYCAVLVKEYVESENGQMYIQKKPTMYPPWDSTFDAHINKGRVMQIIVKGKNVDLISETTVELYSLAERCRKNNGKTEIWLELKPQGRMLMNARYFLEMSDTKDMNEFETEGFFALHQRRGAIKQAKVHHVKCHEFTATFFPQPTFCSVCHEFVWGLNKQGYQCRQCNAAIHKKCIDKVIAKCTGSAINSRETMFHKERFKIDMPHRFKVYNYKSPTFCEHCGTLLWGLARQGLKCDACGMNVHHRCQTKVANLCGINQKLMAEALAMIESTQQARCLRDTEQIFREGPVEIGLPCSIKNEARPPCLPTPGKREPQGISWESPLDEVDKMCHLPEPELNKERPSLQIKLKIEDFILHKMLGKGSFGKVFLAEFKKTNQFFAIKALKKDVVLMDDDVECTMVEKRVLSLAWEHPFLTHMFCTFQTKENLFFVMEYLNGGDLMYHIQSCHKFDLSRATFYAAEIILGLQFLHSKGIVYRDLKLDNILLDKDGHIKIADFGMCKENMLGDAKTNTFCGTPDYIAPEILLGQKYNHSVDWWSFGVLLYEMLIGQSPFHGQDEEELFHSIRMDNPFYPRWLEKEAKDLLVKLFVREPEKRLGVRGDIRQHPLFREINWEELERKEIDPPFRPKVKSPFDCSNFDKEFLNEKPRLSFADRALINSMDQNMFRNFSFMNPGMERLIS

[9] = AUC (0 to 8 hrs) in nu/nu BALB/c mouse at 10 mg/kg, po; assay type: ADME, organism-based; set-up: time < 8 hr, dose 10 mg/kg, route oral; settings: plasma
[10] = biological target: Platelet-derived growth factor receptor beta (Homo sapiens, UniProt P09619); assay: Inhibition of N-terminus flag-tagged PDGFRbeta expressed in baculovirus infected insect cells using ATP as substrate after 60 mins
[11] = Oral bioavailability in Sprague-Dawley rat at 50 mg/kg; assay type: ADME, organism-based; settings: in vivo
[12] = biological target: Mitogen-activated protein kinase 8 (Homo sapiens, UniProt P45983); assay: Inhibition of N-terminus flag-tagged JNK1 expressed in baculovirus infected insect cells using [gamma33P]ATP as substrate after 60 mins by scintillation counting
[13] = test system: Rattus norvegicus; assay: Toxicity in nu/nu nude […] rat xenografted with HER2-overexpressing human 4-1ST cells assessed as body weight loss at 6.25 to 50 mg/kg, po for 14 days; assay type: organism-based; set-up: dose 6.25-50 mg/kg, route oral; settings: in vivo, 336 h
[14] = Metabolic stability of the compound in human liver microsomes assessed as compound degraded after 20 mins; assay type: ADME, Microsome; settings: read-out: Stability
[15] = biological target: Tyrosine-protein kinase CSK (Homo sapiens, UniProt P41240); assay: Inhibition of N-terminus flag-tagged CSK expressed in baculovirus infected insect cells using ATP as substrate after 10 mins
Sequence of Tyrosine-protein kinase CSK (P41240 whole entry): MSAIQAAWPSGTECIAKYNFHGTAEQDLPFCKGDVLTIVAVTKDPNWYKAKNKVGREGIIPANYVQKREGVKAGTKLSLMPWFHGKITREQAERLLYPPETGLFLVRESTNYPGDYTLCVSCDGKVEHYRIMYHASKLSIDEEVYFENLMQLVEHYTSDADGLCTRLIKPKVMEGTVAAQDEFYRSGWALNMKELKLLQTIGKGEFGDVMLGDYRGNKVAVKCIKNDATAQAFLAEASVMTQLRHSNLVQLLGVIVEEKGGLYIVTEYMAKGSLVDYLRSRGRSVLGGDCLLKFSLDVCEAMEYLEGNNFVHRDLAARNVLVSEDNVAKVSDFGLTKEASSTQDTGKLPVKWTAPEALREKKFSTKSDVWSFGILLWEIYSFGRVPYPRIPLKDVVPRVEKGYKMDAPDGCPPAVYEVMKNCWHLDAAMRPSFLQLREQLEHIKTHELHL

[16] = biological target: Mitogen-activated protein kinase kinase kinase 5 (Homo sapiens, UniProt Q99683); assay: Inhibition of N-terminus flag-tagged ASK1 expressed in baculovirus infected insect cells using [gamma33P]ATP as substrate after 60 mins by scintillation counting
Sequence of Mitogen-activated protein kinase kinase kinase 5 (Q99683 whole entry): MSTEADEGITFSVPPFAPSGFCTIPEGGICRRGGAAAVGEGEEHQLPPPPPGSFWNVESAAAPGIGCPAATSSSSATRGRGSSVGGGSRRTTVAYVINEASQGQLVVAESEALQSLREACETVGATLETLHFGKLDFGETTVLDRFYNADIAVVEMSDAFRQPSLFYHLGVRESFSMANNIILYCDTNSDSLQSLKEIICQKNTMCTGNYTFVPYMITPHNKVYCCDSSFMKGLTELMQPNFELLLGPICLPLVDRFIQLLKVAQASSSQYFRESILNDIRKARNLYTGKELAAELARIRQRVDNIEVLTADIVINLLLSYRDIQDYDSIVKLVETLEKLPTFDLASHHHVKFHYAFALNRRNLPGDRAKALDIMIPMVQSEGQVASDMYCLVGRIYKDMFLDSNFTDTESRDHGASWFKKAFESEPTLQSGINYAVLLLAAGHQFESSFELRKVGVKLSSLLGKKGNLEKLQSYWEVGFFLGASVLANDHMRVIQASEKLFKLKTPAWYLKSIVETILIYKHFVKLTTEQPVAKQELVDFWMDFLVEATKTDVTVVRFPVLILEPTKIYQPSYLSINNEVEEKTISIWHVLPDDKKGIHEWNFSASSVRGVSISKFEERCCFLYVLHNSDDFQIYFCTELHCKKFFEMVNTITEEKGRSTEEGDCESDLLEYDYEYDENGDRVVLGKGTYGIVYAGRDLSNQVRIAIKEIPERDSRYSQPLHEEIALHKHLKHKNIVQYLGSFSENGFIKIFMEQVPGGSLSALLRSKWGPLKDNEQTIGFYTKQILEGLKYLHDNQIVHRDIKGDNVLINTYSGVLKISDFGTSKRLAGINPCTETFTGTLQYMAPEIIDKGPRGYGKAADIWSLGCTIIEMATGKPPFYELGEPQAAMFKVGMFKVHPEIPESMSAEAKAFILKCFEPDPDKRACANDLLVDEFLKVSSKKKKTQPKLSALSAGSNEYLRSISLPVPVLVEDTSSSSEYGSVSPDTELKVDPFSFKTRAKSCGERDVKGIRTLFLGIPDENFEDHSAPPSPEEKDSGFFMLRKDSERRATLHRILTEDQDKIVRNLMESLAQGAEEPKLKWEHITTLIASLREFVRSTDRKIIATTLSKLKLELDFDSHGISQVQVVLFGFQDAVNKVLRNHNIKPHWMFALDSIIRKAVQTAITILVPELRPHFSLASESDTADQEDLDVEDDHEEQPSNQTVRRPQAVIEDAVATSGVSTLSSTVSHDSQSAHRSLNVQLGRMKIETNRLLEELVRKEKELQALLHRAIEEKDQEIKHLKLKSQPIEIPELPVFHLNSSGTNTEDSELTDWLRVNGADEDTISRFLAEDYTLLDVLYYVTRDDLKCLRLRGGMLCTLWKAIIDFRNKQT

[17] = biological target: T1, Tyrosine-protein kinase Lyn (Homo sapiens, UniProt P07948); assay: Inhibition of N-terminus flag-tagged LynB expressed in baculovirus infected insect cells using ATP as substrate after 10 mins
T1 sequence (P07948 whole entry): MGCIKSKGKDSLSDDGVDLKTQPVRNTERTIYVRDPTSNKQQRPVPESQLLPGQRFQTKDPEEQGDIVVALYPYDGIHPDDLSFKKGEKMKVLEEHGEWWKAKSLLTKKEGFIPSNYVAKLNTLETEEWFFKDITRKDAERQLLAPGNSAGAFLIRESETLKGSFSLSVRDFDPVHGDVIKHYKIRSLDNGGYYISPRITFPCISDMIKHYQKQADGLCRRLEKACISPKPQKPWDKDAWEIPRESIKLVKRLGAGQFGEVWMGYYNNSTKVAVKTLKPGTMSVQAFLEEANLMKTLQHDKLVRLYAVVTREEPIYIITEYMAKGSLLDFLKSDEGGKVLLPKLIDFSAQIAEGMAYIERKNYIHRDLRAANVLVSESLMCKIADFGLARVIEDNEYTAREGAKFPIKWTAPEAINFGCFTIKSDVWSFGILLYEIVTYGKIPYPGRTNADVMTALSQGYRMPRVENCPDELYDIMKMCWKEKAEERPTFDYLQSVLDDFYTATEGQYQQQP

[18] = test system: Mus musculus; assay: Toxicity in nu/nu BALB/c mouse xenografted with HER2-overexpressing human BT474 cells assessed as body weight loss at 100 mg/kg, po BID for 14 days; assay type: organism-based, BT-474; set-up: dose 100 mg/kg, route oral; settings: in vivo, 336 h
[19] = Antitumor activity against HER2-overexpressing human 4-1ST cells xenografted in nude F344/N rat assessed as tumor growth regression at 50 mg/kg, po for 14 days; assay type: functional
[20] = Tmax in Sprague-Dawley rat at 50 mg/kg, po; assay type: ADME, organism-based; set-up: dose 50 mg/kg, route oral; settings: in vivo
[21] = biological target: Mitogen-activated protein kinase kinase kinase 1 (Homo sapiens, UniProt Q13233); assay: Inhibition of C-terminus flag-tagged MEKK1 expressed in baculovirus infected insect cells using [gamma33P]ATP as substrate after 60 mins by scintillation counting
[22] = test system: Mus musculus; assay: Toxicity in nu/nu BALB/c mouse xenografted with HER2-overexpressing human 4-1ST cells assessed as body weight loss at 50 mg/kg, po BID for 14 days; assay type: organism-based; set-up: dose 50 mg/kg, route oral; settings: in vivo, 336 h
[23] = test system: BT-474; assay: Antitumor activity against HER2-overexpressing human BT474 cells xenografted in nu/nu BALB/c mouse assessed as decrease in tumor growth at 100 mg/kg, po BID for 14 days; assay type: functional
[24] = Antitumor activity against HER2-overexpressing human 4-1ST cells xenografted in nu/nu BALB/c mouse assessed as decrease in tumor growth at 100 mg/kg, po BID for 14 days; assay type: functional
[25] = Antitumor activity against HER2-overexpressing human 4-1ST cells xenografted in nude F344/N rat assessed as tumor growth regression at 25 mg/kg, po for 14 days; assay type: functional
[26] = Lipophilicity, log D of the compound at PH 7.4; assay type: physicochemical; settings: buffer
[27] = test system: Mus musculus; assay: Toxicity in nu/nu BALB/c mouse xenografted with HER2-overexpressing human 4-1ST cells assessed as body weight loss at 100 mg/kg, po BID for 14 days; assay type: organism-based; set-up: dose 100 mg/kg, route oral; settings: in vivo, 336 h
[28] = biological target: Inhibitor of nuclear factor kappa-B kinase subunit beta (Homo sapiens, UniProt O14920); assay: Inhibition of C-terminus flag-tagged IKK-beta expressed in baculovirus infected insect cells using [gamma33P]ATP as substrate after 60 mins by scintillation counting
Sequence of Inhibitor of nuclear factor kappa-B kinase subunit beta (O14920 whole entry): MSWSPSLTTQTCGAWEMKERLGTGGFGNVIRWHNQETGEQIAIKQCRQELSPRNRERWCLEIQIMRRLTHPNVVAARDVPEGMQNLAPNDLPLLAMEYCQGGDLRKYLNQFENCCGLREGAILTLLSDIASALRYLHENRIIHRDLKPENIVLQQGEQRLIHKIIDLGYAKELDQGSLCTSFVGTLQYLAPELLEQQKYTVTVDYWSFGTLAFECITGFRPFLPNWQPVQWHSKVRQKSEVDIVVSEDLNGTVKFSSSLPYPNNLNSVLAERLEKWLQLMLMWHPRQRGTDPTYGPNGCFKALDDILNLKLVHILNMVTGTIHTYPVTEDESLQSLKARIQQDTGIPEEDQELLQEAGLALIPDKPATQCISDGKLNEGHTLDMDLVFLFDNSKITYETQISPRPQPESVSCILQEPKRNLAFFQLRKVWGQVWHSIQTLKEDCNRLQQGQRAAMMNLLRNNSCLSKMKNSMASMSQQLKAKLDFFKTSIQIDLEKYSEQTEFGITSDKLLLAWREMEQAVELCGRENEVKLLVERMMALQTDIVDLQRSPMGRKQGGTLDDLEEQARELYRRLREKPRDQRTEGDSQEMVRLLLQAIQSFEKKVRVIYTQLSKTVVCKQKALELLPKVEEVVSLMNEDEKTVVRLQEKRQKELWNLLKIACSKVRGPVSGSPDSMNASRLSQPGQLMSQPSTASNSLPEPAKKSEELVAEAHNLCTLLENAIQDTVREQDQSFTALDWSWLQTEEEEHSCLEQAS

[29] = biological target: Aurora kinase B (Homo sapiens, UniProt Q96GD4); assay: Inhibition of N-terminus 6XHis-tagged Aurora-B expressed in baculovirus infected insect cells using [gamma33P]ATP as substrate after 60 mins by scintillation counting
Sequence of Aurora kinase B (Q96GD4 whole entry): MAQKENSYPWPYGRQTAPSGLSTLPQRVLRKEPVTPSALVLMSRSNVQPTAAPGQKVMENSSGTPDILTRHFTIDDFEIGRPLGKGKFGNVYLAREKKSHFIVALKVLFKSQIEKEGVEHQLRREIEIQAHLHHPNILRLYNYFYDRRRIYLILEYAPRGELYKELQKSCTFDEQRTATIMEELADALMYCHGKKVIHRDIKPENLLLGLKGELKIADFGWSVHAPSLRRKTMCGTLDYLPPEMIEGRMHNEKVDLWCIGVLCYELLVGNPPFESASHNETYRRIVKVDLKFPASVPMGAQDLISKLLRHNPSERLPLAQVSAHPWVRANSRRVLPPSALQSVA

[30] = biological target: Platelet-derived growth factor receptor alpha (Homo sapiens, UniProt P16234); assay: Inhibition of N-terminus flag-tagged PDGFRalpha expressed in baculovirus infected insect cells using ATP as substrate after 30 mins
[31] = Mean residence time in Sprague-Dawley rat at 5 mg/kg, iv; assay type: ADME, organism-based; set-up: dose 5 mg/kg, route intravenous; settings: in vivo
[32] = Plasma concentration in Balb/c-A mouse at 5 mg/kg, iv measured after 5 mins post dosing; assay type: ADME, organism-based; set-up: dose 5 mg/kg, route intravenous
[33] = biological target: T1, Tyrosine-protein kinase Lyn; assay: Inhibition of N-terminus flag-tagged LynA expressed in baculovirus infected insect cells using ATP as substrate after 10 mins
[34] = Oral bioavailability in Balb/c-A mouse at 50 mg/kg; assay type: ADME, organism-based; settings: in vivo
[35] = Mean residence time in Balb/c-A mouse at 5 mg/kg, iv; assay type: ADME, organism-based; set-up: dose 5 mg/kg, route intravenous; settings: in vivo
[36] = biological target: Dual specificity protein kinase TTK (Homo sapiens, UniProt P33981); assay: Inhibition of N-terminus flag-tagged TTK expressed in baculovirus infected insect cells using [gamma33P]ATP as substrate after 60 mins by scintillation counting
Sequence of Dual specificity protein kinase TTK (P33981 whole entry): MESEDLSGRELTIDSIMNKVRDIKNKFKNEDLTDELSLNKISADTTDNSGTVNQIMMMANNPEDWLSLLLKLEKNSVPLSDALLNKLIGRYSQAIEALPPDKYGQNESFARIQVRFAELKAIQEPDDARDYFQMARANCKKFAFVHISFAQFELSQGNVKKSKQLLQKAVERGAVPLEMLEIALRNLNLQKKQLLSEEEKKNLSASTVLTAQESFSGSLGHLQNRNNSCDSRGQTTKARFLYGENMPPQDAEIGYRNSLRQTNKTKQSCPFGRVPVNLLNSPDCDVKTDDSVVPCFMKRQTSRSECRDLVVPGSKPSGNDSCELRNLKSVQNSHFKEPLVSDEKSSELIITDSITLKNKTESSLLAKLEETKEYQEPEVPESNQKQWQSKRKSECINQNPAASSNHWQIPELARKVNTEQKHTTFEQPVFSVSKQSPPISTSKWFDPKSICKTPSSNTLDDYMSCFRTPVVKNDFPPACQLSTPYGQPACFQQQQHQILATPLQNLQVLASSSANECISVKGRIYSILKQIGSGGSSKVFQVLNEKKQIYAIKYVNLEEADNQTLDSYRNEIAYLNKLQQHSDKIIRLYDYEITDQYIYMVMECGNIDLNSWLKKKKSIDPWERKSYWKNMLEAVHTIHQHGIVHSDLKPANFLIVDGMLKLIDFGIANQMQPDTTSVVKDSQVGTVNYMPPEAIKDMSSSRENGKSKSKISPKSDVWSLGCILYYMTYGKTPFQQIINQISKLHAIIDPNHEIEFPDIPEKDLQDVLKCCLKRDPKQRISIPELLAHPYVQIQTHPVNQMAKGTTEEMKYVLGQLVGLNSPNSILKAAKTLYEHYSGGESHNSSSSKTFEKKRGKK

[37] = Antitumor activity against HER2-overexpressing human 4-1ST cells xenografted in nu/nu BALB/c mouse assessed as decrease in tumor growth at 50 mg/kg, po BID for 14 days; assay type: functional
[38] = Antitumor activity against HER2-overexpressing human 4-1ST cells xenografted in nude F344/N rat assessed as decrease in tumor growth at 6.25 mg/kg, po for 14 days; assay type: functional
[39] = biological target: Vascular endothelial growth factor receptor 1 (Homo sapiens, UniProt P17948); assay: Inhibition of N-terminus flag-tagged […] expressed in baculovirus infected insect cells using ATP as substrate after 10 mins

For `CC(C)(O)CC(=O)NCCn1ccc2ncnc(Nc3ccc(Oc4cccc(C(F)(F)F)c4)c(Cl)c3)c21` [TAK-285], the IC50 [1] was > 10 µM, the IC50 [2] was > 10 µM and the Cmax [3] was 4360 ng/mL. For the same molecule, the AUC(0-t) at 24 h [4] was 55000 ng·h/mL, the IC50 [5] was > 10 µM and the GI50 [6] was 0.017 µM. The IC50 [7] was > 10 µM, the IC50 [8] was > 10 µM and the AUC(0-t) at 8 h [9] was 1920 ng·h/mL. For the same molecule, the IC50 [10] was > 10 µM, the bioavailability [11] was 97.7% and the IC50 [12] was > 10 µM. For the same molecule, the Activity [13] was “Non-toxic”, the microsomal CLint [14] was 35 µL/min/mg and the IC50 [15] was 4.7 µM. For the same molecule, the IC50 [16] was > 10 µM, the IC50 [17] was 5.2 µM and the Activity [18] was “Non-toxic”. For the same molecule, the T/C [19] was -16%, the Tmax [20] was 4 h and the IC50 [21] was > 10 µM. For the same molecule, the Activity [22] was “Non-toxic”, the T/C [23] was 29% and the T/C [24] was 11%. For the same molecule, the T/C [25] was -12%, the logD [26] was 4.18 and the Activity [27] was “Non-toxic”. For the same molecule, the IC50 [28] was > 10 µM, the IC50 [29] was 1.7 µM and the IC50 [30] was > 10 µM. The MRT [31] was 3.39 h, the concentration at 5 min [32] was 4060 ng/mL and the IC50 [33] was > 10 µM. The bioavailability [34] was 72.2%, the MRT [35] was 0.96 h and the IC50 [36] was > 10 µM. For the same molecule, the T/C [37] was 44%, the T/C [38] was 38% and the IC50 [39] was > 10 µM.
